Assay results taken from article PMC8592419 (PLoS ONE, 2021).
Values after ≈ are worked out from the molar mass of the structure shown. Where two headings read alike, the source gives them in different places. Each block holds one compound with its values, some of them ahead of it. Where a SMILES comes first, the peptide text is derived from it.

Key:
[1] = test system: M. abscessus clinical isolate MAB15; assay: In vitro susceptibility testing (DST), CLSI broth microdilution; format: cell-based, M. abscessus subsp. massiliense; parameters: key to DST profile, interpretation, Day 3 / DST profile, interpretation, Day 5 / DST profile, interpretation, Day 14: S, susceptible; I, intermediate; R, resistant; settings: for MIC: Mycobacteroides abscessus
Description: (§1) Drug susceptibility testing (DST) was performed according to the Clinical and Laboratory Standards Institute (CLSI) guidelines M24-A2 [42] using the broth microdilution method to determine the minimum inhibitory concentration (MIC). […] Colonies were grown at an adjusted cell density to a 0.5 McFarland standard and further diluted to 5×10^5 CFU/ml. […] These were then incubated at 37°C for 3, 5 and 14 days. The MIC was defined as the concentration in which no visible growth was observed. The results were interpreted according to the guidelines of CLSI. Inducible resistance was inferred by changes in MIC values from being susceptible at day 3 to resistant at day 14.

[2] = test system: M. abscessus clinical isolate MAB13; assay: as above; format: cell-based, M. abscessus subsp. massiliense; parameters: key to DST profile, interpretation, Day 3 / DST profile, interpretation, Day 5 / DST profile, interpretation, Day 14: S, susceptible; I, intermediate; R, resistant; settings: for MIC: Mycobacteroides abscessus
Description: as §1

[3] = test system: M. abscessus clinical isolate MAB14; assay: as above; format: cell-based, M. abscessus subsp. massiliense; parameters: key to DST profile, interpretation, Day 3 / DST profile, interpretation, Day 5 / DST profile, interpretation, Day 14: S, susceptible; I, intermediate; R, resistant; settings: for MIC: Mycobacteroides abscessus
Description: as §1

[4] = test system: M. abscessus clinical isolate MAB06; format: cell-based, M. abscessus subsp. abscessus; settings: 3 days at 37°C
Description: (§2) Briefly, serial dilutions of the AMPs were prepared with potassium phosphate buffer (PPB) from the concentration range of 3.125 to 400 μg/ml and then 50 μl of each dilution were added to each 96-well plate. Colonies of the isolate were suspended and then further diluted in Mueller-Hinton broth to obtain a final concentration of 1×10^3 CFU/ml (optimized according to the available AMP stock concentration). Fifty microliters of this inoculum were added to each well of the plates. The plates were incubated for 3 days at 37°C. Plain media and bacterial suspensions without AMPs were used as negative and positive controls. The MIC values were read and recorded. All assays were performed in duplicate and two independent experiments.
(§3) For the in vitro antimicrobial susceptibility, the same protocol as described above was used. The culture plates were further incubated up to 3 days at 37°C. The MIC values were read and recorded.

[5] = test system: human peripheral blood mononuclear cells (PBMCs); assay: PBMC toxicity, trypan blue exclusion assay; format: cell-based; settings: 1 h at 37°C, mean±SD of duplicates, two independent experiments
Description: For the toxicity of the potential AMPs to human peripheral blood mononuclear cells (PBMCs), the trypan blue exclusion assay was used. Fresh human PBMCs were prepared from blood samples of healthy volunteers using the Ficoll density gradient technique. The cells were centrifuged at 1,800 rpm for 20 min at 20°C and washed three times with PBS and adjusted with RPMI-1640 medium into 6.25×10^5 cells/ml. Fifty microliters of PBMC suspension and 50 μl of AMP solutions (6.25–400 μg/ml) were added to the 96-well microtiter plates and incubated for 1 h at 37°C. Then, 20 μl of the samples were mixed with 20 μl of 0.4% (w/v) trypan blue solution (0.81% NaCl and 0.06% (w/v) dibasic potassium phosphate) in microtubes and incubated for 3 min at room temperature. The PBMC suspensions treated with PBS were used as negative controls. PBMCs were counted using a dual-chamber hemocytometer under a light microscope. Viable and non-viable cells were counted under a microscope and the percentage of viable cells was calculated using the following formula: % of viable cells = [1.00 –([…] / Number of total cells)] × 100. All assays were performed in duplicate with two independent experiments.

Mab ATCC19977 strain = format: cell-based, Mycobacterium abscessus
Description: as §2

[6] = test system: M. abscessus clinical isolate MAB16; assay: In vitro antimicrobial susceptibility of potential AMPs, broth microdilution, 3 days; format: cell-based, M. abscessus subsp. massiliense; settings: 3 days at 37°C
Description: as §2, §3

[7] = test system: M. abscessus clinical isolate MAB15; assay: as above; format: cell-based, M. abscessus subsp. massiliense; settings: 3 days at 37°C
Description: as §2, §3

[8] = test system: human red blood cells (RBCs); assay: Hemolytic toxicity test; format: cell-based; settings: for Hemolytic activities (%hemolysis): human RBCs, 1 h at 37°C, mean±SD of duplicates, two independent experiments
Description: For the hemolytic toxicity test, red blood cells (RBCs) from fresh blood samples of healthy volunteers were obtained by centrifugation at 1,000 rpm for 5 min. The cells were washed three times with sterile phosphate buffered saline (PBS) and adjusted into 1×10^8 cells/ml. AMPs were diluted with PPB in ranging from 6.25 to 400 μg/ml. Fifty microliters of the RBC suspensions and 50 μl of AMP solutions were added to 1.5 ml sterile microtubes, incubated for 1 h at 37°C and then centrifuged at 1,000 rpm for 5 min. The supernatants were transferred to new 96-well microtiter plates for measurement of the absorbance at 540 nm using a microplate reader. RBC suspensions treated with 2% (v/v) Triton X-100 and PBS solution were used as positive and negative controls. The percentages of hemolysis were calculated using the following formula: % of RBC lysis = 100 × [(Test—PBS) / (Positive control—PBS)]. All assays were performed in duplicate and two independent experiments.

[9] = 72 h, day 3, read-out: DST profile, MIC value, Day 3
[10] = 120 h, day 5, read-out: DST profile, MIC value, Day 5
[11] = 336 h, day 14, read-out: DST profile, MIC value, Day 14

MIC [1, 9]: 4 µg/mL (≈ 5.35 µM)
MIC [1, 10]: 4 µg/mL (≈ 5.35 µM)
MIC [1, 11]: 4 µg/mL (≈ 5.35 µM)
MIC [2, 9]: 8 µg/mL (≈ 10.7 µM)
MIC [2, 10]: 32 µg/mL (≈ 42.8 µM)
MIC [2, 11]: 32 µg/mL (≈ 42.8 µM)
MIC [3, 9]: 512 µg/mL (≈ 685 µM)
MIC [3, 10]: 512 µg/mL (≈ 685 µM)
MIC [3, 11]: 512 µg/mL (≈ 685 µM)
Compound: CC[C@H]1OC(=O)[C@H](C)[C@@H](O[C@H]2C[C@@](C)(OC)[C@@H](O)[C@H](C)O2)[C@H](C)[C@@H](O[C@@H]2O[C@H](C)C[C@H](N(C)C)[C@H]2O)[C@](C)(OC)C[C@@H](C)C(=O)[C@H](C)[C@@H](O)[C@]1(C)O [CLA, Clarithromycin]
DST profile, interpretation, Day 3 ([1]; day 3, CLSI interpretation): I
DST profile, interpretation, Day 5 ([1]; day 5, CLSI interpretation): I
DST profile, interpretation, Day 14 ([1]; day 14, CLSI interpretation): I
DST profile, interpretation, Day 3 ([2]; day 3, CLSI interpretation): R
DST profile, interpretation, Day 5 ([2]; day 5, CLSI interpretation): R
DST profile, interpretation, Day 14 ([2]; day 14, CLSI interpretation): R
DST profile, interpretation, Day 3 ([3]; day 3, CLSI interpretation): R
DST profile, interpretation, Day 5 ([3]; day 5, CLSI interpretation): R
DST profile, interpretation, Day 14 ([3]; day 14, CLSI interpretation): R

Compound: CC[C@H](C)[C@H](NC(=O)[C@H](CCCCN)NC(=O)[C@H](CCCNC(=N)N)NC(=O)CNC(=O)[C@H](CC(C)C)NC(=O)[C@H](CO)NC(=O)[C@H](CCCNC(=N)N)NC(=O)[C@H](CC(C)C)NC(=O)CNC(=O)CN)C(=O)N[C@@H](CC(C)C)C(=O)N[C@@H](CCCNC(=N)N)C(=O)N[C@@H](C)C(=O)N[C@@H](Cc1c[nH]c2ccccc12)C(=O)N[C@@H](CCCCN)C(=O)N[C@@H](CCCCN)C(=O)N[C@@H](Cc1ccc(O)cc1)C(=O)O [S61] (H-GGLRSLGRKILRAWKKY-OH)
Antimicrobial peptides against M. abscessus isolates, MIC value [4]: >400 µg/mL
Viable cells of PBMCs (% viable cells) ([5]; 6.25 µg/mL): 97.98±1.38%
Viable cells of PBMCs (% viable cells) ([5]; 12.5 µg/mL): 94.40±0.56%
Viable cells of PBMCs (% viable cells) ([5]; 25 µg/mL): 95.35±3.74%
Viable cells of PBMCs (% viable cells) ([5]; 50 µg/mL): 87.35±7.57%
Viable cells of PBMCs (% viable cells) ([5]; 100 µg/mL): 79.70±6.73%
Viable cells of PBMCs (% viable cells) ([5]; 200 µg/mL): 38.76±0.82%
Viable cells of PBMCs (% viable cells) ([5]; 400 µg/mL): 41.40±5.84%
MIC values (Mab ATCC19977 strain): 200 µg/mL (≈ 99.9 µM)
Antimicrobial peptides against M. abscessus isolates, MIC value [6]: >400 µg/mL
Antimicrobial peptides against M. abscessus isolates, MIC value [7]: >400 µg/mL
Hemolytic activities (%hemolysis) ([8]; 6.25 µg/mL): -0.18±0.75%
Hemolytic activities (%hemolysis) ([8]; 12.5 µg/mL): 4.58±4.48%
Hemolytic activities (%hemolysis) ([8]; 25 µg/mL): 6.34±4.98%
Hemolytic activities (%hemolysis) ([8]; 50 µg/mL): 9.15±1.99%
Hemolytic activities (%hemolysis) ([8]; 100 µg/mL): 10.74±0.75%
Hemolytic activities (%hemolysis) ([8]; 200 µg/mL): 11.44±0.25%
Hemolytic activities (%hemolysis) ([8]; 400 µg/mL): 13.03±0.00%

Compound: CC[C@H](C)[C@H](NC(=O)[C@H](CCCCN)NC(=O)[C@H](CCCNC(=N)N)NC(=O)CNC(=O)[C@H](CC(C)C)NC(=O)[C@H](CO)NC(=O)[C@H](CCCNC(=N)N)NC(=O)[C@H](CC(C)C)NC(=O)CNC(=O)CN)C(=O)N[C@@H](CC(C)C)C(=O)N[C@@H](CCCNC(=N)N)C(=O)N[C@@H](C)C(=O)N[C@@H](Cc1c[nH]c2ccccc12)C(=O)N[C@@H](CCCCN)C(=O)O [S63] (H-GGLRSLGRKILRAWK-OH)
Antimicrobial peptides against M. abscessus isolates, MIC value [4]: >400 µg/mL
Viable cells of PBMCs (% viable cells) ([5]; 6.25 µg/mL): 103.67±6.60%
Viable cells of PBMCs (% viable cells) ([5]; 12.5 µg/mL): 101.78±5.46%
Viable cells of PBMCs (% viable cells) ([5]; 25 µg/mL): 88.38±7.60%
Viable cells of PBMCs (% viable cells) ([5]; 50 µg/mL): 93.65±6.02%
Viable cells of PBMCs (% viable cells) ([5]; 100 µg/mL): 66.28±2.71%
Viable cells of PBMCs (% viable cells) ([5]; 200 µg/mL): 71.94±8.32%
Viable cells of PBMCs (% viable cells) ([5]; 400 µg/mL): 48.78±0.59%
MIC values (Mab ATCC19977 strain): 200 µg/mL (≈ 117 µM)
Antimicrobial peptides against M. abscessus isolates, MIC value [6]: >400 µg/mL
Antimicrobial peptides against M. abscessus isolates, MIC value [7]: >400 µg/mL
Hemolytic activities (%hemolysis) ([8]; 6.25 µg/mL): -0.53±0.75%
Hemolytic activities (%hemolysis) ([8]; 12.5 µg/mL): 3.52±4.98%
Hemolytic activities (%hemolysis) ([8]; 25 µg/mL): 5.81±3.73%
Hemolytic activities (%hemolysis) ([8]; 50 µg/mL): 7.04±3.98%
Hemolytic activities (%hemolysis) ([8]; 100 µg/mL): 8.27±3.73%
Hemolytic activities (%hemolysis) ([8]; 200 µg/mL): 9.68±2.74%
Hemolytic activities (%hemolysis) ([8]; 400 µg/mL): 10.56±1.99%
hemolysis at the MICs level ([8]; at the MICs level, single figure of the abstract): 1.50%
